Patent US20160313301A1, “METHOD FOR PREDICTING ANTITUMOR EFFICACY OF HSP90 INHIBITOR IN CANCER TREATMENT” (NIPPON KAYAKU KABUSHIKI KAISHA, priority 2013, published 2016)

Key:
Type in all cases: in vivo
[1] = test system: human ovarian cancer cells OC-11-JCK/PTX; experiment: Anti-tumor test in mice transplanted subcutaneously with tumor (OC-11-JCK/PTX); conditions: OC-11-JCK/PTX s.c. in mice; 125 mg/kg tail vein three times at 7 day intervals
Procedure: Human ovarian cancer cell lines OC-10-JCK, OC-11-JCK, and TOGY-18, and a human breast cancer cell line MC-19-JCK were obtained from Central Institute for Experimental Animals. Cryopreserved tumor pieces were thawed, and then OC-10-JCK, OC-11-JCK, and MC-19-JCK were transplanted subcutaneously to SCID mice, while TOGY-18 was transplanted subcutaneously to nude mice. After the tumors were grown, the tumors were removed and cut into tumor pieces. The tumor pieces were transplanted subcutaneously to SCID mice or nude mice with trocars. The tumors were maintained by repeated transplantation in the same manner as described above to prepare tumors to be transplanted. Human ovarian cancer cell lines ES-2, SK-OV-3, OV-90, and TOV-21G, and a human lung cancer cell line NCI-H1975 were obtained from American Type Culture Collection (ATCC). The SK-OV-3 and NCI-H1975 cell lines were grown in recommended culture media, of which about 1×10^7 cells were suspended into HBSS and then injected subcutaneously to SCID mice. After the cells formed tumors, the tumors were removed and cut into tumor pieces. The tumor pieces were transplanted subcutaneously to SCID mice with trocars. The tumors were maintained by repeated transplantation in the same manner as described above to prepare tumors to be transplanted. The OV-90 cell line was grown in a recommended culture medium, of which about 1×10^6 cells were suspended into HBSS and then injected subcutaneously to SCID mice. After the cells formed a tumor, the tumor was subjected to an anti-tumor test. The TOV-21G cell line was grown in a recommended culture medium, of which about 1×10^7 cells were suspended into HBSS and then injected subcutaneously to SCID mice. After the cells formed a tumor, the tumor was subjected to the anti-tumor test. The ES-2 cell line was grown in a recommended culture medium, suspended into HBSS, and then injected subcutaneously to nude mice. After the cells formed a tumor, the tumor was removed and cut into tumor pieces. The tumor pieces were transplanted subcutaneously to nude mice with a trocar. […]

[2] = test system: human breast cancer cells JIMT-1; experiment: Anti-tumor test in mice transplanted subcutaneously with tumor (JIMT-1); conditions: JIMT-1 s.c. in mice; 125 mg/kg tail vein three times at 7 day intervals
Procedure: (§1) Human ovarian cancer cell lines OC-10-JCK, OC-11-JCK, and TOGY-18, and a human breast cancer cell line MC-19-JCK were obtained from Central Institute for Experimental Animals. Cryopreserved tumor pieces were thawed, and then OC-10-JCK, OC-11-JCK, and MC-19-JCK were transplanted subcutaneously to SCID mice, while TOGY-18 was transplanted subcutaneously to nude mice. After the tumors were grown, the tumors were removed and cut into tumor pieces. The tumor pieces were transplanted subcutaneously to SCID mice or nude mice with trocars. The tumors were maintained by repeated transplantation in the same manner as described above to prepare tumors to be transplanted. Human ovarian cancer cell lines ES-2, SK-OV-3, OV-90, and TOV-21G, and a human lung cancer cell line NCI-H1975 were obtained from American Type Culture Collection (ATCC). The SK-OV-3 and NCI-H1975 cell lines were grown in recommended culture media, of which about 1×10^7 cells were suspended into HBSS and then injected subcutaneously to SCID mice. After the cells formed tumors, the tumors were removed and cut into tumor pieces. The tumor pieces were transplanted subcutaneously to SCID mice with trocars. The tumors were maintained by repeated transplantation in the same manner as described above to prepare tumors to be transplanted. […]

[3] = test system: human breast cancer cells MC-19-JCK; experiment: Anti-tumor test in mice transplanted subcutaneously with tumor (MC-19-JCK); conditions: MC-19-JCK s.c. in mice; administered once at 125 mg/kg
Procedure: as §1

[4] = test system: human lung cancer cells NCI-H1975; experiment: Anti-tumor test in mice transplanted subcutaneously with tumor (NCI-H1975); conditions: NCI-H1975 s.c. in mice; 150 mg/kg tail vein three times at 7 day intervals
Procedure: as §1

[5] = test system: human ovarian cancer cells TOGY-18; experiment: Anti-tumor test in mice transplanted subcutaneously with tumor (TOGY-18); conditions: TOGY-18 s.c. in mice; 125 mg/kg tail vein three times at 7 day intervals
Procedure: as §1

SMILES: CC(C)c1cc(-c2n[nH]c(=O)n2-c2ccc3c(ccn3C)c2)c(O)cc1O [Ganetespib, reference compound]
- T/C % (lowest value from the beginning to the 21st day of administration) [1]: 84.0%
- T/C % (lowest value from the beginning to the 21st day of administration) [2]: 56.6%
- T/C % (lowest value from the beginning to the 21st day of administration) [3]: 19.8%
- T/C % (lowest value from the beginning to the 21st day of administration) [4]: 44.0%
- T/C % (lowest value from the beginning to the 21st day of administration) [5]: 67.7%
